Laboratory results reported in PMC10674894 (Viruses, 2023).

Assays:
[1] = test system: Vero cells; experiment: Cytotoxicity MTT assay in Vero cells (MNTD, CC50); assay type: cell-based, African green monkey; details: Table S1; Vero cells
[2] = test system: CHIKV DRDE-07; experiment: In vitro screening against CHIKV (CPE inhibition and MTT cell viability); assay type: cell-based, chikungunya virus; details: Table S1, CHIKV-infected Vero cells; for % Cell viability: 72 hpi, MTT assay; for CPE: arbitrary score of cytopathic effect at >48 hpi

| SMILES | MNTD [1] [µM] | % Cell viability [2] [%] | CPE [2] |
| --- | --- | --- | --- |
| COc1ccc(/C(=N\NC(=O)c2cccnc2)c2ccccc2)cc1 [DCR48, (Z)-N'-((4-methoxyphenyl)(phenyl)methylene)nicotinohydrazide] | 31.25 | 20.87 | ++++ (>60% (++++)) |
| C/C(=N\NC(=O)c1ccncc1)c1ccccc1O [DCR49, (E)-N'-(1-(2-hydroxyphenyl)ethylidene)isonicotinohydrazide] | 62.5 | 48.9 | +++ (60-50% (+++)) |
| C/C(=N\NC(=O)c1ccncc1)c1ccc(O)cc1 [DCR50, (E)-N'-(1-(4-hydroxyphenyl)ethylidene)isonicotinohydrazide] | 62.5 | 18.01 | ++++ (>60% (++++)) |
| C/C(=N\NC(=O)c1ccncc1)c1ccccc1N [DCR51, (E)-2-(1-(2-isonicotinoylhydrazono)ethyl)benzenaminium] | 62.5 | -2.93 | ++++ (>60% (++++)) |
| C/C(=N\NC(=O)c1ccncc1)c1c(O)ccc2ccccc12 [DCR52, N'-[(1E)-1-(2-hydroxynaphthalen-1-yl)ethylidene]pyridine-4-carbohydrazide] | 31.25 | 30.87 | ++++ (>60% (++++)) |
| COc1ccc(/C(=N\NC(=O)c2ccncc2)c2ccccc2)cc1 [DCR53, N'-[(1Z)-(4-methoxyphenyl)(phenyl)methylidene]pyridine-4-carbohydrazide] | 31.25 | 11.42 | ++++ (>60% (++++)) |
| O=C(c1cccnc1)n1nc(-c2ccc(O)cc2)cc1-c1ccc(Cl)cc1Cl [DCR54, 4-[5-(2,4-dichlorophenyl)-1-(pyridine-3-carbonyl)-1H-pyrazol-3-yl]phenol] | 15.62 | 8.73 | ++++ (>60% (++++)) |
| O=C(c1cccnc1)n1nc(-c2ccc(O)cc2)cc1-c1ccccc1 [DCR55, 4-[5-phenyl-1-(pyridine-3-carbonyl)-1H-pyrazol-3-yl]phenol] | 31.25 | 17.69 | ++++ (>60% (++++)) |
| Cc1ccc(-c2cc(-c3ccc(O)cc3)nn2C(=O)c2cccnc2)cc1 [DCR56, 4-[5-(4-methylphenyl)-1-(pyridine-3-carbonyl)-1H-pyrazol-3-yl]phenol] | 31.25 | 24.2 | ++++ (>60% (++++)) |
| Cc1ccc(-c2cc(-c3ccc(O)cc3)nn2C(=O)c2cccnc2)cc1 [DCR57, 4-[5-(4-methylphenyl)-1-(pyridine-3-carbonyl)-1H-pyrazol-3-yl]phenol] | 31.25 | 24.84 | ++++ (>60% (++++)) |
| CCOc1ccc(-c2cc(-c3ccc(O)cc3)nn2C(=O)c2cccnc2)cc1OC [DCR58, 4-[5-(4-ethoxy-3-methoxyphenyl)-1-(pyridine-3-carbonyl)-1H-pyrazol-3-yl]phenol] | 15.62 | 8.17 | ++++ (>60% (++++)) |
| CCOc1cc(-c2cc(-c3ccc(O)cc3)nn2C(=O)c2cccnc2)ccc1O [DCR59, 2-ethoxy-4-[3-(4-hydroxyphenyl)-1-(pyridine-3-carbonyl)-1H-pyrazol-5-yl]phenol] | 15.62 | 49.1 | +++ (60-50% (+++)) |
| COc1cc(-c2cc(-c3ccc(O)cc3)nn2C(=O)c2cccnc2)cc(OC)c1OC [DCR60, 4-[1-(pyridine-3-carbonyl)-5-(3,4,5-trimethoxyphenyl)-1H-pyrazol-3-yl]phenol] | 31.25 | -3.41 | ++++ (>60% (++++)) |
| COc1ccc(Br)cc1-c1cc(-c2ccc(O)cc2)nn1C(=O)c1cccnc1 [DCR61, 4-[5-(5-bromo-2-methoxyphenyl)-1-(pyridine-3-carbonyl)-1H-pyrazol-3-yl]phenol] | 31.25 | 12.22 | ++++ (>60% (++++)) |
| O=C(O)c1ccc(-c2cc(-c3ccc(O)cc3)nn2C(=O)c2cccnc2)cc1 [DCR62, 4-[3-(4-hydroxyphenyl)-1-(pyridine-3-carbonyl)-1H-pyrazol-5-yl]benzoic acid] | 31.25 | -27.93 | ++++ (>60% (++++)) |
| O=C(c1cccnc1)n1nc(-c2ccc(O)cc2)cc1-c1cccc([N+](=O)[O-])c1 [DCR63, 4-[5-(3-nitrophenyl)-1-(pyridine-3-carbonyl)-1H-pyrazol-3-yl]phenol] | 31.25 | -4.2 | ++++ (>60% (++++)) |
| O=C1NC(c2ccc(Cl)cc2)c2c(ccc3ccccc23)O1 (stereo not drawn) [DCR64, 1-(4-chlorophenyl)-1H,2H,3H-naphtho[1,2-e][1,3]oxazin-3-one] | 31.25 | -3.8 | ++++ (>60% (++++)) |
| O=C1NC(c2ccc(F)cc2)c2c(ccc3ccccc23)O1 (stereo not drawn) [DCR65, 1-(4-fluorophenyl)-1H,2H,3H-naphtho[1,2-e][1,3]oxazin-3-one] | 53.27 | 12.63 | ++++ (>60% (++++)) |

| SMILES | MNTD [1] [µM] | % Cell viability [2] [%] | CPE [2] |
| --- | --- | --- | --- |
| Cc1ccc(C2NC(=O)Oc3ccc4ccccc4c32)cc1 (stereo not drawn) [DCR66, 1-(4-methylphenyl)-1H,2H,3H-naphtho[1,2-e][1,3]oxazin-3-one] | 54 | 12.24 | ++++ (>60% (++++)) |
| O=C1NC(c2cccc(Cl)c2)c2c(ccc3ccccc23)O1 (stereo not drawn) [DCR67, 1-(3-chlorophenyl)-1H,2H,3H-naphtho[1,2-e][1,3]oxazin-3-one] | 50.44 | 10.94 | ++++ (>60% (++++)) |
| O=C1NC(c2cccc(Cl)c2)c2c(ccc3ccccc23)O1 (stereo not drawn) [DCR68, 1-(3-chlorophenyl)-1H,2H,3H-naphtho[1,2-e][1,3]oxazin-3-one] | 53.27 | 10.84 | ++++ (>60% (++++)) |
| CCOc1ccc(C2NC(=O)Oc3ccc4ccccc4c32)cc1 (stereo not drawn) [DCR69, 1-(4-ethoxyphenyl)-1H,2H,3H-naphtho[1,2-e][1,3]oxazin-3-one] | 195.71 | 7.61 | ++++ (>60% (++++)) |
| O=C1NC(c2ccc(C(F)(F)F)cc2)c2c(ccc3ccccc23)O1 (stereo not drawn) [DCR70, 1-[4-(trifluoromethyl)phenyl]-1H,2H,3H-naphtho[1,2-e][1,3]oxazin-3-one] | 45.44 | 10.59 | ++++ (>60% (++++)) |
| O=C1NC(c2ccc(OC(F)(F)F)cc2)c2c(ccc3ccccc23)O1 (stereo not drawn) [DCR71, 1-[4-(trifluoromethoxy)phenyl]-1H,2H,3H-naphtho[1,2-e][1,3]oxazin-3-one] | 43.42 | 7.44 | ++++ (>60% (++++)) |
| CCOc1ccc(C2NC(=O)NC(C)=C2C(=O)OCCN(C)C)cc1 (stereo not drawn) [DCR72, 2-(dimethylamino)ethyl 4-(4-ethoxyphenyl)-6-methyl-2-oxo-1,2,3,4-tetrahydropyrimidine-5-carboxylate] | 31.25 | 25.42 | ++++ (>60% (++++)) |
| CC1=C(C(=O)OCCN(C)C)C(c2ccc([N+](=O)[O-])cc2)NC(=O)N1 (stereo not drawn) [DCR73, 2-(dimethylamino)ethyl 6-methyl-4-(4-nitrophenyl)-2-oxo-1,2,3,4-tetrahydropyrimidine-5-carboxylate] | 31.25 | 24.54 | ++++ (>60% (++++)) |
| CC1=C(C(=O)OCCN(C)C)C(c2ccc(C)cc2)NC(=O)N1 (stereo not drawn) [DCR74, 2-(dimethylamino)ethyl 6-methyl-4-(4-methylphenyl)-2-oxo-1,2,3,4-tetrahydropyrimidine-5-carboxylate] | 31.25 | 12.75 | ++++ (>60% (++++)) |
| CCOc1ccc(C2NC(=O)NC(C)=C2C(=O)OCC[N+](C)(C)C)cc1 (stereo not drawn) [DCR75, {2-[4-(4-ethoxyphenyl)-6-methyl-2-oxo-1,2,3,4-tetrahydropyrimidine-5-carbonyloxy]ethyl}trimethylazanium] | 31.25 | 10.21 | ++++ (>60% (++++)) |
| COc1ccc(-c2nc(CC(C)=O)no2)cc1 [DCR76, 1-[5-(4-methoxyphenyl)-1,2,4-oxadiazol-3-yl]propan-2-one] | 125 | 19.42 | ++++ (>60% (++++)) |
| CC(=O)Cc1noc(-c2ccc([N+](=O)[O-])cc2)n1 [DCR77, 1-[5-(4-nitrophenyl)-1,2,4-oxadiazol-3-yl]propan-2-one] | 125 | 10.43 | ++++ (>60% (++++)) |
| CC(=O)Cc1noc(-c2ccccc2)n1 [DCR78, 1-(5-phenyl-1,2,4-oxadiazol-3-yl)propan-2-one] | 125 | 17.32 | ++++ (>60% (++++)) |
| CC(=O)Cc1noc(C(c2ccccc2)c2ccccc2)n1 [DCR79, 1-[5-(diphenylmethyl)-1,2,4-oxadiazol-3-yl]propan-2-one] | 125 | 16.42 | ++++ (>60% (++++)) |
| CC(=O)Cc1noc(C2CCCCC2)n1 [DCR80, 1-(5-cyclohexyl-1,2,4-oxadiazol-3-yl)propan-2-one] | 125 | 29.64 | ++++ (>60% (++++)) |
| CC(=O)Cc1noc(-c2cccc([N+](=O)[O-])c2)n1 [DCR81, 1-[5-(3-nitrophenyl)-1,2,4-oxadiazol-3-yl]propan-2-one] | 125 | 0 | ++++ (>60% (++++)) |
| CC(=O)Cc1noc(-c2ccncc2)n1 [DCR82, 1-[5-(pyridin-4-yl)-1,2,4-oxadiazol-3-yl]propan-2-one] | 125 | 14.42 | ++++ (>60% (++++)) |
| CC(=O)Cc1noc(-c2cc(Cl)ccc2Cl)n1 [DCR83, 1-[5-(2,5-dichlorophenyl)-1,2,4-oxadiazol-3-yl]propan-2-one] | 230.55 | 10.49 | ++++ (>60% (++++)) |
